{
  "source": "patent US20010002252A1",
  "about": "“TOOTH WHITENING PREPARATIONS” (priority 1994, published 2001)",
  "assay": "Tooth whitening by brushing of extracted bovine teeth with toothpaste slurry, colorimeter L value",
  "procedure": "Tooth whitening was measured by the following process:\nWhitening was determined using a modification to a system normally employed in the dental arts for determining the abrasivity of dentifrices.\nBovine jaws were obtained at a local abattoir and the teeth were extracted in their native state; no pre-cleaning was done. Teeth were mounted in a cap with dental acrylic so as to fit the format of a colorimeter and the brushing instrument: a detailed description is given below. An initial brushing was done with a slurry of Crest Regular toothpaste and an Oral B40, medium bristle, toothbrush. Then an initial L value was determined on a colorimeter (Hunter). This was designated as the initial whiteness value. The wear tester device was manufactured by Ramè-Hart, of Mountain Lakes, N.J. This machine has often been used to test the abrasivity of dental preparations. Tooth brushes were mounted and the teeth and brushes aligned. A 1:3 slurry of paste and water was poured into the trays and brushing commenced for a total of six hours. The slurry was replaced hourly. At 3 and 6 hours L value determinations were made. This was done by first rinsing the teeth with deionized water, then placing them in a closed container at 100% humidity for 1 hours, then taking a reading on the colorimeter to obtain a 3 hour and 6 hour L value.\nToothpaste slurries were tested for their whitening effect. […]",
  "data": [
    {"smiles": "O=P(O)(O)OP(=O)(O)OP(=O)(O)O", "note": "[STP, sodium tripolyphosphate]", "values": [
      {"measurement": "tooth whitening as compared with the placebo base", "setting": "10% or higher STP in Table I toothpaste base, 1:3 slurry of paste and water, brushing 6 hours, L value at 3 and 6 hours", "result": "superior tooth whitening"},
      {"measurement": "pH at which the best whitening results were obtained", "setting": "STP toothpaste slurries, pH adjusted with 3M NaOH or 3M HCl", "result": "around 8.0"}
    ]}
  ]
}
